Molecules are shown by their SMILES. Converted amounts (≈) assume the structure as drawn. Structures can show the parent of a compound that is named as a salt.

One data set has as its system E. coli NIHJ. In words: Antibacterial activity (MIC), standard method of the Japanese Society of Chemotherapy. The data set is classed as cell-based. Particulars: Escherichia coli; E. coli NIHJ; read-out: MIC. As for the experimental part: (§1) Antibacterial activity of the compounds of the present invention was measured in accordance with the standard method designated by the Japanese Society of Chemotherapy. The results are shown in MIC values (μg/mL) (Table 1). For comparison with the MIC values of the compounds of the present invention, MIC values of levofloxacin (LVFX), ciprofloxacin (CPFX), and 7-[3-(R)-(1-aminocyclopropyl)pyrrolidin-1-yl]-8-cyano-1-[2-(S)-fluoro-1-(R)-cyclopropyl]-1,4-dihydro-4-oxoquinoline-3-carboxylic acid (control drug 1: represented by the following formula), which is described in International Publication WO 02/40478 pamphlet, are also shown in the table.

Another data set concerns E. faevcalis ATCC 19433. The description is as above. The data set is classed as cell-based. Particulars: E. faevcalis ATCC 19433; read-out: MIC. As to the method: as §1
The subject of another data set is K. pneumoniae TYPE I. Described as above. The data set is classed as cell-based. As to conditions: Klebsiella pneumoniae; K. pneumoniae TYPE I; read-out: MIC. As for the experimental part:
as §1

For another data set, the system named is P. Vulgaris 08601. The description is as above. Particulars: Proteus vulgaris; P. Vulgaris 08601; read-out: MIC. The class given is cell-based. As to the method: as §1
A further data set deals with P. aeruginosa 32104. Described as above. Particulars: Pseudomonas aeruginosa; P. aeruginosa 32104; read-out: MIC. The data set is classed as cell-based. As for the experimental part: as §1
The next data set concerns P. aeruginosa 32121. The description is as above. The class given is cell-based. Particulars: Pseudomonas aeruginosa; P. aeruginosa 32121; read-out: MIC. As to the method: as §1
The next data set deals with S. aureus 870307. The data set is described as above. The data set is classed as cell-based. Particulars: Staphylococcus aureus; S. aureus 870307; read-out: MIC. As to the method: as §1
The next data set has as its system S. aureus FDA 209P. The description is as above. The class given is cell-based. As to conditions: Staphylococcus aureus, FDA209P; S. aureus FDA 209P; read-out: MIC. As to the method:
as §1

A further data set relates to S. epidermidis 56500. The data set is described as above. The class given is cell-based. Particulars: Staphylococcus epidermidis; S. epidermidis 56500; read-out: MIC. As to the method:
as §1

For another data set, the system named is S. flexneri 2A 5503. The data set is described as above. Particulars: Shigella flexneri, 2A5503. The data set is classed as cell-based. As to the method: as §1
The next data set relates to S. maltophilia IID 1275. The data set is described as above. The data set is classed as cell-based. Particulars: Stenotrophomonas maltophilia, IID1275; S. maltophilia IID 1275; read-out: MIC. As for the experimental part:
as §1

For a further data set, the system named is S. marcescens 10100. Described as above. The data set is classed as cell-based. Particulars: Serratia marcescens; S. marcescens 10100; read-out: MIC. As for the experimental part: as §1
Another data set has as its system S. pneumoniae J24. Described as above. Particulars: Streptococcus pneumoniae; S. pneumoniae J24; read-out: MIC. The class given is cell-based. As to the method: as §1
A further data set deals with S. pyogenes G-36. Described as above. The data set is classed as cell-based. Particulars: Streptococcus pyogenes, G36; S. pyogenes G-36; read-out: MIC. As for the experimental part: as §1

In turn, `N#Cc1c(N2CC[C@@H](C3(N)CC3)C2)c(F)cc2c(=O)c(C(=O)O)cn(C3CC3)c12` (as salt: trifluoroacetate) (hydrate or solvate) [Compound No. 2, 7-[3-(R)-(1-Aminocyclopropyl)pyrrolidin-1-yl]-8-cyano-1-cyclopropyl-6-fluoro-1,4-dihydro-4-oxoquinoline-3-carboxylate] returned a melting point of 148 to 152 °C.

In turn, `N#Cc1c(N2CC[C@@H](C3(N)CC3)C2)c(F)cc2c(=O)c(C(=O)O)cn([C@@H]3C[C@@H]3F)c12` (hydrate or solvate) [Compound No. 1, 7-[3-(R)-(1-Aminocyclopropyl)pyrrolidin-1-yl]-8-cyano-6-fluoro-1-[2-(S)-fluoro-1-(R)-cyclopropyl]-1,4-dihydro-4-oxoquinoline-3-carboxylate] gave a melting point of 138 to 140 °C.

`O=C(O)c1cn(C2CC2)c2cc(N3CCNCC3)c(F)cc2c1=O` [CPFX, ciprofloxacin, reference compound]: the MIC in the data set on E. coli NIHJ is no more than 0.003 µg/mL; in the data set with E. faevcalis ATCC 19433 it was 0.78 µg/mL (≈ 2.35 µM); with K. pneumoniae TYPE I, 0.025 µg/mL (≈ 0.0754 µM); in the data set with P. Vulgaris 08601, no more than 0.003 µg/mL; in the data set with P. aeruginosa 32104, 0.05 µg/mL (≈ 0.151 µM); in the data set with P. aeruginosa 32121, 0.025 µg/mL (≈ 0.0754 µM). In addition, the MIC was greater than 6.25 µg/mL in the data set with S. aureus 870307; 0.1 µg/mL (≈ 0.302 µM) in the data set with S. aureus FDA 209P; 0.2 µg/mL (≈ 0.604 µM) in the data set on S. epidermidis 56500; 0.006 µg/mL (≈ 0.0181 µM) in the data set with S. flexneri 2A 5503; 0.78 µg/mL (≈ 2.35 µM) with S. maltophilia IID 1275; 0.025 µg/mL (≈ 0.0754 µM) in the data set on S. marcescens 10100. For the same compound, the MIC in the data set on S. pneumoniae J24 amounted to 0.39 µg/mL (≈ 1.18 µM); with S. pyogenes G-36 it was 1.56 µg/mL (≈ 4.71 µM).

Consider `N#Cc1c(N2CC[C@@H](C3(N)CC3)C2)ccc2c(=O)c(C(=O)O)cn([C@@H]3C[C@@H]3F)c12` [Control drug 1, 7-[3-(R)-(1-aminocyclopropyl)pyrrolidin-1-yl]-8-cyano-1-[2-(S)-fluoro-1-(R)-cyclopropyl]-1,4-dihydro-4-oxoquinoline-3-carboxylic acid, reference compound], for which the MIC in the data set with E. coli NIHJ was 0.012 µg/mL (≈ 0.0303 µM); in the data set on E. faevcalis ATCC 19433, 0.1 µg/mL (≈ 0.252 µM); with K. pneumoniae TYPE I it was 0.1 µg/mL (≈ 0.252 µM); in the data set with P. Vulgaris 08601 it was 0.025 µg/mL (≈ 0.0631 µM); in the data set on P. aeruginosa 32104, 0.2 µg/mL (≈ 0.505 µM); in the data set with P. aeruginosa 32121, 0.1 µg/mL (≈ 0.252 µM). Besides, the MIC with S. aureus 870307 was 0.39 µg/mL (≈ 0.984 µM); in the data set on S. aureus FDA 209P, 0.006 µg/mL (≈ 0.0151 µM); with S. epidermidis 56500, 0.05 µg/mL (≈ 0.126 µM); in the data set with S. flexneri 2A 5503 it was 0.012 µg/mL (≈ 0.0303 µM); in the data set with S. maltophilia IID 1275 it was 0.78 µg/mL (≈ 1.97 µM); in the data set on S. marcescens 10100 it was 0.1 µg/mL (≈ 0.252 µM). The MIC in the data set with S. pneumoniae J24 and with S. pyogenes G-36 was 0.025 µg/mL (≈ 0.0631 µM) throughout.

Broadly, the melting point is the temperature, or range, at which the solid turns liquid. One may read the MIC as the lowest concentration that inhibits growth of the organism.

Source of the values: patent publication US7723524B2, “8-cyanoquinolonecarboxylic acid derivative” (Daiichi Pharmaceutical Co., Ltd., priority 2003, dated 2010).
